Data on 27 compounds can be found in patent US20250230138A1, “COMPOUNDS HAVING A T-STRUCTURE FORMED BY AT LEAST FOUR CYCLES FOR USE IN THE TREATMENT OF CANCER AND OTHER INDICATIONS” (TheRas, Inc., priority 2022, published 2025).

Structures are written as SMILES. Read-outs that look alike come from different tables or passages of the source.

The IC50 is the point on the concentration scale where inhibition reaches its midpoint.

Experiment [1] addresses Cys242 in human PIK3CA (157-299) (Homo sapiens (Human), UniProt P42336). Description: Covalent modification assay using MALDI-TOF MS. Format: biochemical. The following applies: 4 h reaction time point. In short, it runs like this:
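PIK3CA (157-299) at 3.33 μM or 1 μM in 20 mM HEPES, 150 mM NaCl, 2 mM MgCl2, pH 7.3 was incubated with compound (from 10 mM DMSO stocks) in the dark at room temperature for 15 min, 30 min, 2 h or 4 h. Linear-mode MALDI-TOF peak heights gave percent modification.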

The subject of experiment [2] is pAKT in BT474 cells. Description: Cell-based pAKT HTRF assay in BT474 cells. The following applies: BT474 cells, 4 hr incubation, read-out: pAKT inhibition IC50 in BT474 cells. In short, it runs like this: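 9-pt curve, top 3 μM, 3-fold steps, 0.25% DMSO; 4 hr compound exposure. Lysis, then HTRF with d2/Eu Cryptate antibody pair, 4–24 h RT. Ex 320 nm, Em 615 nm.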
Background: TR-FRET usually uses a lanthanide donor and a delayed reading to cut background.

[3] abbreviates: 3.33 μM protein target, 1:7.5 protein to compound ratio (compounds 1-852).
Where [4] appears, read: 1 μM protein target, 1:5 protein to compound ratio (compounds 853-1279).

Chain of Cys242 in human PIK3CA (157-299) (P42336 157-299): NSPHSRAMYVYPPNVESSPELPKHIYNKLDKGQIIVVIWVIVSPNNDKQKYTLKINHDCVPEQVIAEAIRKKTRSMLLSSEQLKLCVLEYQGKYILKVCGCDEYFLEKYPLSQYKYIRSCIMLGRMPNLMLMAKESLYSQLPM

For the compound `C=CC(=O)N1Cc2cc(-c3nc(-c4cnn(C5CCC5)c4)c4ccsc4c3-c3c(F)cc(F)cc3OCCOC)nn2C[C@H]1C` [Compound 723], in experiment [1] (setting [3]), the “% of modification” value is reported as “A (percent of modification of PIK3CA protein ≥75%)”. Besides, the half-inhibitory concentration (IC50) in experiment [2] (Compounds 10-999) is below 100 nM.

Take `C=CC(=O)N1CCn2nc(-c3nc(-c4cnc5c(c4)CN(C)CC5)c4c(c3-c3c(F)cc(F)cc3OCCOC)CCC4)cc2C1C` (stereo not drawn) [Compound 1243]: in experiment [1] (setting [4]), the “% of modification” value was “A (percent of modification of PIK3CA protein ≥75%)”. In experiment [2] (Compounds 1000-1279), the half-maximal inhibitory concentration (IC50) was below 100 nM.

For `C=CC(=O)N1CC(n2cc(-c3nc(N4CCc5cn[nH]c5C4)c4ccsc4c3-c3ccc(F)cc3OCCOC)cn2)C1` [Compound 166], the “% of modification” value in experiment [1] (setting [3]) is listed as “A (percent of modification of PIK3CA protein ≥75%)”. In experiment [2] (Compounds 10-999), the IC50 fell in the range of 100 to 1000 nM.

On to `C=CC(=O)N1CCc2nc(-c3nc(-c4ccc5c(c4)CCNC5=O)c4ccsc4c3-c3c(F)cc(F)cc3OCCOC)sc2C1` [Compound 977], for which, in experiment [1] (setting [4]), the “% of modification” value is listed as “A (percent of modification of PIK3CA protein ≥75%)”. For the same compound, the IC50 in experiment [2] (Compounds 10-999) lay within 100 to 1000 nM.

With `C=CC(=O)N1CCn2nc(-c3nc(-c4ccc5c(cnn5C)c4)c4ccsc4c3-c3c(F)cc(F)cc3OC3CC(F)(F)C3)cc2C1C` (stereo not drawn) [Compound 1240], the “% of modification” value in experiment [1] (setting [4]) is on record as “A (percent of modification of PIK3CA protein ≥75%)”. For the same compound, in experiment [2] (Compounds 1000-1279), the half-inhibitory concentration (IC50) is below 100 nM.

On to `C=CC(=O)N1CCc2nc(-c3nc(-c4cnn(C)c4)c4ccsc4c3-c3c(F)cc(F)cc3OCCOC)sc2C1` [Compound 363], for which, in experiment [1] (setting [3]), the “% of modification” value is recorded as “A (percent of modification of PIK3CA protein ≥75%)”. In addition, the half-maximal inhibitory concentration (IC50) in experiment [2] (Compounds 10-999) was below 100 nM.

For `C=CC(=O)N1CC(n2cc(-c3nc(-c4ccc5c(c4)CCNC5)c4ncsc4c3-c3ccc(F)cc3OC)cn2)C1` [Compound 104, 1-[3-[4-[7-(4-fluoro-2-methoxy-phenyl)-4-(1,2,3,4-tetrahydroisoquinolin-6-yl)thiazolo[4,5-c]pyridin-6-yl]pyrazol-1-yl]azetidin-1-yl]prop-2-en-1-one], the “% of modification” value in experiment [1] (setting [3]) was “A (percent of modification of PIK3CA protein ≥75%)”. The half-maximal inhibitory concentration (IC50) in experiment [2] (Homo sapiens, BT-474, Compounds 10-999) was in the range of 100 to 1000 nM.

With `C=CC(=O)N1Cc2cc(-c3nc(-c4ccc5cnn(C)c5c4)c4ccsc4c3-c3c(F)cc(F)cc3OCC(C)O)nn2C(C)C1` (stereo not drawn) [Compound 680], the “% of modification” value in experiment [1] (setting [3]) is “A (percent of modification of PIK3CA protein ≥75%)”. Moreover, in experiment [2] (Compounds 10-999), the 50% inhibitory concentration (IC50) is below 100 nM.

Take `C=CC(=O)N1Cc2cc(-c3nc(-c4ccc5c(c4)CCN(C)C5)c4ccsc4c3-c3c(F)cc(F)cc3OC3CC3)nn2C[C@H]1C` [Compound 516]: in experiment [1] (setting [3]), the “% of modification” value is “A (percent of modification of PIK3CA protein ≥75%)”. The half-inhibitory concentration (IC50) in experiment [2] (Compounds 10-999) is below 100 nM.

For `C=CC(=O)N1CCc2ncc(-c3nc(-c4ccc5c(c4)CCNC5)c4ccsc4c3-c3ccc(F)cc3OC)cc2C1` [Compound 86], the “% of modification” value in experiment [1] (setting [3]) is recorded as “A (percent of modification of PIK3CA protein ≥75%)”. The IC50 in experiment [2] (Compounds 10-999) is below 100 nM.

Consider `C=CC(=O)N1CCn2nc(-c3nc(-c4ccc5c(c4)C(=O)N(C)C5)c4ccsc4c3-c3c(F)cc(F)cc3OCCO)cc2C1C` (stereo not drawn) [Compound 867], for which the “% of modification” value in experiment [1] (setting [4]) was “A (percent of modification of PIK3CA protein ≥75%)”. Besides, in experiment [2] (Compounds 10-999), the concentration for half-maximal inhibition (IC50) was below 100 nM.

Take `C=CC(=O)N1CC(n2cc(-c3nc(C4=CCC5(CC4)CNC5)c4ccsc4c3-c3ccc(F)cc3OCCOC)cn2)C1` [Compound 145]: the “% of modification” value in experiment [1] (setting [3]) is given as “A (percent of modification of PIK3CA protein ≥75%)”. Further, the half-inhibitory concentration (IC50) in experiment [2] (Compounds 10-999) lay in the range of 1000 to 3000 nM.

In the case of `C=CC(=O)N1CCn2nc(-c3nc(-c4ccc5c(c4)[nH]c(=O)n5C)c4ccsc4c3-c3c(F)cc(F)cc3OCCOC)cc2C1C` (stereo not drawn) [Compound 1092], the “% of modification” value in experiment [1] (setting [4]) was “A (percent of modification of PIK3CA protein ≥75%)”. The half-inhibitory concentration (IC50) in experiment [2] (Compounds 1000-1279) was below 100 nM.

Take `C=CC(=O)N1CC(n2cc(-c3nc(N4CCC5(CC4)CS(=O)(=O)C5)c4ccsc4c3-c3ccc(F)cc3OCCOC)cn2)C1` [Compound 149]: the “% of modification” value in experiment [1] (setting [3]) is reported as “A (percent of modification of PIK3CA protein ≥75%)”. In addition, the IC50 in experiment [2] (Compounds 10-999) fell in the range of 100 to 1000 nM.

For `C=CC(=O)N1CCn2nc(-c3nc(-c4ccc5ncn(C)c(=O)c5c4)c4ccsc4c3-c3c(F)cc(F)cc3OCCOC)cc2C1C` (stereo not drawn) [Compound 925], the “% of modification” value in experiment [1] (setting [4]) is reported as “A (percent of modification of PIK3CA protein ≥75%)”. In addition, the 50% inhibitory concentration (IC50) in experiment [2] (Compounds 10-999) was below 100 nM.

Consider `C=CC(=O)N1CCc2ncc(-c3nc(-c4cnc5c(c4)CN(C)CC5)c4ccsc4c3-c3c(F)cc(F)cc3OC(C)C)cc2C1` [Compound 327], for which the “% of modification” value in experiment [1] (setting [3]) was “A (percent of modification of PIK3CA protein ≥75%)”. In addition, the IC50 in experiment [2] (Compounds 10-999) is below 100 nM.

Regarding `C=CC(=O)N1CC(n2cc(-c3nc(-c4ccc5c(c4)CNC(=O)C5)c4ccsc4c3-c3ccc(F)cc3OC)cn2)C1` [Compound 79], the “% of modification” value in experiment [1] (setting [3]) is on record as “A (percent of modification of PIK3CA protein ≥75%)”. Moreover, in experiment [2] (Compounds 10-999), the IC50 was below 100 nM.

For the compound `C=CC(=O)N1CCn2nc(-c3nc(-c4cnn(C)c4)c4ccsc4c3-c3ccc(F)cc3OC(F)F)cc2C1` [Compound 224], the “% of modification” value in experiment [1] (setting [3]) was “A (percent of modification of PIK3CA protein ≥75%)”. Also, the IC50 in experiment [2] (Compounds 10-999) was below 100 nM.

In the case of `C=CC(=O)N1CCn2nc(-c3nc(-c4cnc(C)nc4)c4ccsc4c3-c3c(F)cc(F)cc3OCC(C)O)cc2C1C` (stereo not drawn) [Compound 771], the “% of modification” value in experiment [1] (setting [3]) is “A (percent of modification of PIK3CA protein ≥75%)”. Besides, in experiment [2] (Compounds 10-999), the concentration for half-maximal inhibition (IC50) was below 100 nM.

Regarding `C=CC(=O)N1CCc2nc(-c3nc(-c4ccc5c(c4)CCN(C)C5)c4ccsc4c3-c3c(F)cc(F)cc3OCCO)sc2C1` [Compound 418], the “% of modification” value in experiment [1] (setting [3]) is on record as “A (percent of modification of PIK3CA protein ≥75%)”. The IC50 in experiment [2] (Compounds 10-999) is below 100 nM.

On to `C=C(F)C(=O)N1Cc2cc(-c3nc(-c4ccc5c(c4)CCN(C)C5)c4ccsc4c3-c3c(F)cc(F)cc3OC(C)C)nn2CC1C` (single isomer, unassigned) [Compound 500], for which, in experiment [1] (setting [3]), the “% of modification” value is “D (percent of modification <25%)”. Also, the IC50 in experiment [2] (Compounds 10-999) was above 3000 nM.

In the case of `C=CC(=O)N1CC[C@@H](n2cc(-c3nc(-c4cnn(CC(F)F)c4)c4ccsc4c3-c3c(F)cc(F)cc3OC(C)C)cn2)C1` [Compound 387], the “% of modification” value in experiment [1] (setting [3]) is “A (percent of modification of PIK3CA protein ≥75%)”. The half-inhibitory concentration (IC50) in experiment [2] (Compounds 10-999) lay in the range of 100 to 1000 nM.

`C=CC(=O)N1CCn2nc(-c3nc(-c4ccc5c(c4)CCN(C)C5)c4ccsc4c3-c3c(F)cc(F)cc3OCC(C)O)cc2C1C` (stereo not drawn) [Compound 550]: the “% of modification” value in experiment [1] (setting [3]) was “A (percent of modification of PIK3CA protein ≥75%)”. Further, the IC50 in experiment [2] (Compounds 10-999) was below 100 nM.

Consider `C=CC(=O)N1Cc2cc(-c3nc(-c4ncn(C)n4)c4ccsc4c3-c3c(F)cc(F)cc3OCCOC)nn2CC1C` (stereo not drawn) [Compound 851], for which the “% of modification” value in experiment [1] (setting [3]) is recorded as “A (percent of modification of PIK3CA protein ≥75%)”. The IC50 in experiment [2] (Compounds 10-999) is below 100 nM.

On to `C=CC(=O)N1Cc2cc(-c3nc(-c4cnnc(C)c4)c4ccsc4c3-c3c(F)cc(F)cc3OCC(C)(C)O)nn2[C@@H](C)C1` [Compound 882], for which the “% of modification” value in experiment [1] (setting [4]) is on record as “A (percent of modification of PIK3CA protein ≥75%)”. Besides, the IC50 in experiment [2] (Compounds 10-999) is below 100 nM.

As for `C=CC(=O)N1CCc2ncc(-c3nc(-c4ccc(=O)n(C)c4)c4ccsc4c3-c3c(F)cc(F)cc3OC(C)C)cc2C1` [Compound 330], in experiment [1] (setting [3]), the “% of modification” value is “A (percent of modification of PIK3CA protein ≥75%)”. Further, the IC50 in experiment [2] (Compounds 10-999) is below 100 nM.

Turning to `C=CC(=O)N1Cc2cc(-c3nc(-c4cnc5c(c4)CNC5=O)c4ccsc4c3-c3c(F)cc(F)cc3OCCOC)nn2CC1C` (stereo not drawn) [Compound 554], in experiment [1] (setting [3]), the “% of modification” value is “A (percent of modification of PIK3CA protein ≥75%)”. In experiment [2] (Compounds 10-999), the IC50 was below 100 nM.
